Test results reported in patent publication US20240251790A1 (priority 2021, published 2024).
“And” between values parts separate entries of the source, which are not always exact repeats. Identical values can stand only once. Like-named read-outs stand apart in the source and are kept apart here.

How the values were obtained:
[1] = test system: total microbial count (APC); assay type: cell-based
[2] = test system: all microbial populations tested (APC, ECC, YM); experiment: Micro tests on barley grains, all microbial populations tested (APC, ECC, YM); assay type: cell-based
Method: The treatment was performed at 20° C. as follows: 100 ml of PAA solution at 500 ppm (unadjusted or adjusted to pH=9.0) were applied to 10.0 g of wet barley grains. Solutions with the grains were then shaken for 30 seconds and then the acid solution was neutralized by addition of 0.5 g sodium thiosulfate. The solutions were then used to evaluate effect of PAA treatment on total microbial count (APC), coliforms (ECC), and yeast and mold (YM). Control samples were treated with DI water.
Each sample was diluted serially into Butterfield's phosphate buffer, and the dilutions were plated on Petrifilm™ (3M, Minneapolis, MN) plates specific for different types of microorganisms. The plates were incubated for 48 hours at 35° C. for APC, and for 5 days at 25° C. for YM. For ECC, the incubation was done at 35° C. for 24 hours, then coliforms were counted, and incubation continued for an additional 24 hours at 35° C. Grown colonies on plates were counted and expressed in CFU/10 g barley grains for each treatment. The tests were done in duplicates.

[3] = test system: barley; experiment: Germination of treated barley kernels (percentage of living kernels); assay type: in vivo; conditions: 500 ppm PAA
Method: The grains treated with PAA as described in Example 4 were further tested for germination. After the treatment, the PAA solution was decanted and kernels were immediately transferred into Petri dishes and placed between two wet paper towels for germination tests. The treated kernels were not washed with water. The germination continued in a water bath at room temperature for 2 days. Germination was evaluated by the percentage of living kernels in a sample of barley.

[4] = test system: yeast and mold (YM); assay type: cell-based; conditions: 500 ppm PAA
[5] = test system: Fusarium graminearum 46779; assay type: cell-based
[6] = test system: coliforms (ECC); assay type: cell-based
[7] = germinated barley treated before kilning, 500 ppm PAA, pH = 3, 30 s, testing after germination
[8] = germinated barley treated before kilning, 500 ppm PAA, pH = 3, 30 s, testing after kilning
[9] = germinated barley treated before kilning, 500 ppm PAA, pH = 9, 30 s, testing after germination
[10] = germinated barley treated before kilning, 500 ppm PAA, pH = 9, 30 s, testing after kilning
[11] = germinated barley, 500 ppm PAA, pH = 3.1, 30 seconds
[12] = germinated barley, 500 ppm PAA, pH = 9.0, 30 seconds
[13] = steeped barley, 500 ppm PAA, pH = 3.1 (unadjusted), 30 seconds, 20° C.
[14] = steeped barley, 500 ppm PAA, pH = 6.5, 5 s
[15] = steeped barley, 500 ppm PAA, pH = 6.5, 30 s
[16] = steeped barley, 500 ppm PAA, pH = 9, 5 s
[17] = steeped barley, 500 ppm PAA, pH = 9, 30 s
[18] = steeped barley, 500 ppm PAA, pH = 9.0, 30 seconds, 20° C.
[19] = steeped barley, 500 ppm PAA, pH = 9, 10 min
[20] = steeped barley, 500 ppm PAA, pH = 10.0, 5 s
[21] = steeped barley, 500 ppm PAA, pH = 10.0, 30 s
[22] = steeped barley, 500 ppm PAA, unadjusted (pH=3.1), 5 s
[23] = steeped barley, 500 ppm PAA, unadjusted (pH=3.1), 30 s
[24] = test on day 2, treated once, day 2 (after steeping), 500 ppm PAA, 2:1, 10 minutes, 20° C.
[25] = test on day 4, treated once, day 2, 500 ppm PAA, 10 minutes
[26] = test on day 4, treated twice, days 2 and 4, 500 ppm PAA, 10 min each
[27] = germinated barley treated before kilning, pH = 3, 30 s, testing after germination, * = complete kill
[28] = germinated barley treated before kilning, pH = 3, 30 s, testing after kilning, * = complete kill
[29] = germinated barley treated before kilning, pH = 9, 30 s, testing after germination
[30] = germinated barley treated before kilning, pH = 9, 30 s, testing after kilning, * = complete kill
[31] = germinated barley, pH = 3.1, 30 seconds
[32] = germinated barley, pH = 9.0, 30 seconds
[33] = steeped barley, pH = 3.1 (unadjusted), 30 seconds, 20° C.
[34] = steeped barley, pH = 9.0, 30 seconds, 20° C.
[35] = steeped barley, pH = 10.0, 30 s
[36] = steeped barley, unadjusted (pH=3.1), 5 s
[37] = steeped barley, unadjusted (pH=3.1), 30 s
[38] = germinated barley treated before kilning, 500 ppm PAA, pH = 3, 30 s, testing after kilning, * = complete kill
[39] = germinated barley treated before kilning, 500 ppm PAA, pH = 9, 30 s, testing after kilning, * = complete kill

CC(=O)OO [PAA, peracetic acid]
APC Log10 [1, 7]: 7.22 Log10 | APC Log10 Reduction [1, 7]: 1.47 Log10 | APC Log10 [1, 8]: 3.78 Log10 | APC Log10 Reduction [1, 8]: 2.59 Log10 | APC Log10 [1, 9]: 7.86 Log10 | APC Log10 Reduction [1, 9]: 0.83 Log10 | APC Log10 [1, 10]: 5.14 Log10 | APC Log10 Reduction [1, 10]: 1.23 Log10 | APC Log10 (CFU/10 g barley grains) [1, 11]: 7.23 Log10 | APC Log10 Reduction [1, 11]: 1.98 Log10 | APC Log10 (CFU/10 g barley grains) [1, 12]: 8.01 Log10 | APC Log10 Reduction [1, 12]: 1.20 Log10 | APC Log10 (CFU/10 g barley grains) [1, 13]: 6.99 Log10 | APC Log10 Reduction [1, 13]: 2.16 Log10 | APC Log10 [1, 14]: 7.34 Log10 | APC Log10 Reduction [1, 14]: 1.73 Log10 | APC Log10 [1, 15]: 6.51 Log10 | APC Log10 Reduction [1, 15]: 2.56 Log10 | APC Log10 [1, 16]: 7.97 Log10 | APC Log10 Reduction [1, 16]: 0.51 Log10 | APC Log10 [1, 17]: 6.72 Log10 | APC Log10 Reduction [1, 17]: 1.75 Log10 | APC Log10 (CFU/10 g barley grains) [1, 18]: 7.34 Log10 | APC Log10 Reduction [1, 18]: 1.81 Log10 | APC Log10 [1, 19]: 6.25 Log10 | APC Log10 Reduction [1, 19]: 2.23 Log10 | APC Log10 [1, 20]: 8.28 Log10 | APC Log10 Reduction [1, 20]: 0.79 Log10 | APC Log10 [1, 21]: 7.35 Log10 | APC Log10 Reduction [1, 21]: 1.72 Log10 | APC Log10 [1, 22]: 8.19 Log10 | APC Log10 Reduction [1, 22]: 0.29 Log10 | APC Log10 [1, 23]: 6.54 Log10 | APC Log10 Reduction [1, 23]: 1.93 Log10 | APC Log10 [1, 24]: 3.84 Log10 | APC Log10 Reduction [1, 24]: 4.30 Log10 | APC Log10 [1, 25]: 6.72 Log10 | APC Log10 Reduction [1, 25]: 2.5 Log10 and 2.52 Log10 | APC Log10 [1, 26]: 5.78 Log10 | APC Log10 Reduction [1, 26]: 3.46 Log10 | reduction of all microorganisms ([2]; germinated barley, unadjusted PAA 500 ppm, 30 seconds (Example 2)): 1-2 Log10 | reduction ([2]; steeped barley, 500 ppm PAA at higher pH (pH=9.0), given sufficient time (Example 4)): 2-3 Log10 | reduction of all microorganisms ([2]; steeped barley, 500 ppm PAA, 30 s (Example 4)): 2.0-4.5 Log10 | reduction in all microbial populations tested ([2]; steeped barley, 500 ppm PAA, 30 seconds, pH 3.1 and 9.0 (Example 1)): 1.5-2.1 Log10 | Germination ([3]; pH 3.1, 30 s, germination 2 days): 100% | Germination ([3]; pH 3.1, 5 min, germination 2 days): 100% | Germination ([3]; pH 3.1, 10 min, germination 2 days): 94% | Germination ([3]; pH 3.1, 30 min, germination 2 days): 73% | Germination ([3]; pH 9.0, 30 s, germination 2 days): 100% | Germination ([3]; pH 9.0, 5 min, germination 2 days): 100% | Germination ([3]; pH 9.0, 10 min, germination 2 days): 100% | Germination ([3]; pH 9.0, 30 min, germination 2 days): 99% | Germination ([3]; pH 9.0, longer treatment times (10 min and 30 min)): ~100% | effect on germination ([3]; short treatment times (0.5-5 min)): practically did not affect the germination | effect on germination ([3]; unadjusted (acidic) solution, longer treatment times (10 min and especially 30 min)): suppressed germination | YM Log10 [4, 27]: 0.00* Log10 | YM Log10 Reduction [4, 27]: 4.67* Log10 | YM Log10 [4, 28]: 0.00* Log10 | YM Log10 Reduction [4, 28]: 2.00* Log10 | YM Log10 [4, 29]: 2.92 Log10 | YM Log10 Reduction [4, 29]: 1.75 Log10 | YM Log10 [4, 30]: 0.00* Log10 | YM Log10 Reduction [4, 30]: 2.00* Log10 | YM Log10 (CFU/10 g barley grains) [4, 31]: 3.60 Log10 | YM Log10 Reduction [4, 31]: 1.86 Log10 | YM Log10 (CFU/10 g barley grains) [4, 32]: 3.83 Log10 | YM Log10 Reduction [4, 32]: 1.63 Log10 | YM Log10 (CFU/10 g barley grains) [4, 33]: 3.84 Log10 | YM Log10 Reduction [4, 33]: 1.75 Log10 | YM Log10 ([4]; steeped barley, pH = 6.5, 5 s): 1.30 Log10 | YM Log10 Reduction ([4]; steeped barley, pH = 6.5, 5 s): 2.46 Log10 | YM Log10 ([4]; steeped barley, pH = 6.5, 30 s): 0.00 Log10 | YM Log10 Reduction ([4]; steeped barley, pH = 6.5, 30 s): 3.76 Log10 | YM Log10 ([4]; steeped barley, pH = 9, 5 s): 3.86 Log10 | YM Log10 Reduction ([4]; steeped barley, pH = 9, 5 s): 0.62 Log10 | YM Log10 ([4]; steeped barley, pH = 9, 30 s): 2.60 Log10 | YM Log10 Reduction ([4]; steeped barley, pH = 9, 30 s): 1.88 Log10 | YM Log10 (CFU/10 g barley grains) [4, 34]: 4.06 Log10 | YM Log10 Reduction [4, 34]: 1.53 Log10 | YM Log10 ([4]; steeped barley, pH = 9, 10 min): 2.80 Log10 | YM Log10 Reduction ([4]; steeped barley, pH = 9, 10 min): 1.79 Log10 | YM Log10 ([4]; steeped barley, pH = 10.0, 5 s): 3.52 Log10 | YM Log10 Reduction ([4]; steeped barley, pH = 10.0, 5 s): 0.24 Log10 | YM Log10 [4, 35]: 3.16 Log10 | YM Log10 Reduction [4, 35]: 0.60 Log10 | YM Log10 [4, 36]: 2.95 Log10 | YM Log10 Reduction [4, 36]: 1.53 Log10 | YM Log10 [4, 37]: 0.00 Log10 | YM Log10 Reduction [4, 37]: 4.48 Log10 | kill of Fusarium [5]: complete kill | ECC Log10 [6, 7]: 6.59 Log10 | ECC Log10 Reduction [6, 7]: 1.67 Log10 | ECC Log10 [6, 38]: 0.00* Log10 | ECC Log10 Reduction [6, 38]: 3.25* Log10 | ECC Log10 [6, 9]: 6.68 Log10 | ECC Log10 Reduction [6, 9]: 1.58 Log10 | ECC Log10 [6, 39]: 0.00* Log10 | ECC Log10 Reduction [6, 39]: 3.25* Log10 | ECC Log10 (CFU/10 g barley grains) [6, 11]: 6.83 Log10 | ECC Log10 Reduction [6, 11]: 1.16 Log10 | ECC Log10 (CFU/10 g barley grains) [6, 12]: 7.39 Log10 | ECC Log10 Reduction [6, 12]: 0.60 Log10 | ECC Log10 (CFU/10 g barley grains) [6, 13]: 5.99 Log10 | ECC Log10 Reduction [6, 13]: 1.91 Log10 | ECC Log10 [6, 14]: 5.94 Log10 | ECC Log10 Reduction [6, 14]: 1.66 Log10 | ECC Log10 [6, 15]: 5.26 Log10 | ECC Log10 Reduction [6, 15]: 2.34 Log10 | ECC Log10 [6, 16]: 5.48 Log10 | ECC Log10 Reduction [6, 16]: 1.73 Log10 | ECC Log10 [6, 17]: 4.78 Log10 | ECC Log10 Reduction [6, 17]: 2.43 Log10 | ECC Log10 (CFU/10 g barley grains) [6, 18]: 5.79 Log10 | ECC Log10 Reduction [6, 18]: 2.11 Log10 | ECC Log10 [6, 19]: 3.63 Log10 | ECC Log10 Reduction [6, 19]: 3.57 Log10 | ECC Log10 [6, 20]: 6.49 Log10 | ECC Log10 Reduction [6, 20]: 1.11 Log10 | ECC Log10 [6, 21]: 5.27 Log10 | ECC Log10 Reduction [6, 21]: 2.33 Log10 | ECC Log10 [6, 22]: 4.60 Log10 | ECC Log10 Reduction [6, 22]: 2.60 Log10 | ECC Log10 [6, 23]: 2.60 Log10 | ECC Log10 Reduction [6, 23]: 4.60 Log10 | ECC Log10 [6, 24]: 0.00 Log10 | ECC Log10 Reduction [6, 24]: 4.36 Log10 | ECC Log10 [6, 25]: 5.41 Log10 | ECC Log10 Reduction [6, 25]: 1.8 Log10 and 1.82 Log10 | ECC Log10 [6, 26]: 4.95 Log10 | ECC Log10 Reduction [6, 26]: 2.28 Log10 | kill of ECC microorganisms ([6]; unadjusted PAA 500 ppm, treated after germination): complete kill
